Drawing on patent US10280163B2 (BeiGene, Ltd., priority 2015, dated 2019), this text covers IC50 and EC50 for 29 compounds.

One assay addresses T1, Recombinant IDO1 (Homo sapiens, UniProt P14902).
T1 construct: His tag (N); made in house; host or cells: E. coli
As to the kind of experiment: IDO1 enzymatic assay. Format: biochemical. The conditions noted are these: 50 nM IDO1, 1.3 mM D-tryptophan, read-out: Enzyme IC50 (nM) IDO1. The method, then:
Recombinant IDO1 was overexpressed and purified from E. coli cells with an N-terminal His tag. IDO1 enzymatic assay was carried out using a methodology similar to described in the literature (J. Biol. Chem. (1980), 255, 1339-1345.). The reaction mixture contains 50 nM IDO1, 1.3 mM D-tryptophan, 5 mM L-ascorbic acid, 6.25 μM methylene Blue, 0.4 mg/mL catalase and compound (or DMSO) in a buffer containing 50 mM potassium phosphate pH 7.5 and 0.1% BSA. After incubation at 24° C. for 1.5 hours, absorbance of the reaction mixture was continuously read at 321 nm to monitor the formation of N′-formylkynurenine by a FULOstar OMEGA plate reader (BMG LABTECH) for 1 hour. The enzymatic activity was determined by measuring the slope of the linear absorbance increase as a function of time. The IC50s are calculated based on remaining enzyme activity in the presence of increasing concentrations of compounds.

Assay [1] concerns the target T2, cellular IDO1 in HeLa cells (Homo sapiens, UniProt P14902).
T2 construct: endogenous in cells; host or cells: HeLa cells (American Type Tissue Culture Collection), induced with human recombinant IFN-γ
Kind of assay: HeLa cell-based IDO1 Kyn (kynurenine) production assay. The conditions noted are these: IFN-γ 100 ng/mL, 48 hours. The method, then:
HeLa Cell-Based IDO1 Kyn (Kynurenine) Production Assay:
The inhibitory activity of IDO1 inhibitors is determined by using a colorimetric reaction to measure Kyn generated from L-Trp (L-Tryptophon) oxidation by cellular IDO1 in HeLa cells after induction of IDO1 by IFN-γ.
Hela cells were obtained from the American Type Tissue Culture Collection and recovered in 10% FBS-containing phenol red-free DMEM medium supplemented with 0.4 mM L-Trp. Cells were plated onto a 96-well plate (100 μl/well) at 8000 cells per well. Human recombinant IFN-γ (8901SC, CST) was added to cells (final concentration 100 ng/mL) to stimulate endogenous IDO1. Compounds at different concentrations diluted in dimethylsulfoxide (DMSO) were added simultaneously with IFN-γ. Cells were kept at 37° C. in a humidified incubator supplied with 5% CO2. After 48 hours of incubation, 100 μl supernatant from each well was removed to a new plate. The protein in the medium was precipitated with the addition of 8 μl 6N trichloroacetic acid. The plate was incubated at 60° C. for 45 min and then centrifugation at 2500 rpm for 10 min to remove sediments. 80 μl supernatants were carefully removed to a new clean plate and added with an equal volume of 2% 4-(Dimethylamino) benzaldehyde (D2004, sigma) dissolved in glacial acetic acid. The absorbance at 480 nm wavelength derived from Kyn was measured using a FULOstar OMEGA plate reader (BMG LABTECH). The IC50 for each compound was derived from fitting the dose-response data to the four-parameter logistic model by using Graphpad Prism software.

Setting [2] is: Table 1, 5-substituted imidazo[1,5-a]pyridines.
Where [3] appears, read: Table 2, 8-substituted imidazo[1,5-a]pyridines.

Read-outs that look alike come from different tables or passages of the source.

T2 sequence (P14902 whole entry): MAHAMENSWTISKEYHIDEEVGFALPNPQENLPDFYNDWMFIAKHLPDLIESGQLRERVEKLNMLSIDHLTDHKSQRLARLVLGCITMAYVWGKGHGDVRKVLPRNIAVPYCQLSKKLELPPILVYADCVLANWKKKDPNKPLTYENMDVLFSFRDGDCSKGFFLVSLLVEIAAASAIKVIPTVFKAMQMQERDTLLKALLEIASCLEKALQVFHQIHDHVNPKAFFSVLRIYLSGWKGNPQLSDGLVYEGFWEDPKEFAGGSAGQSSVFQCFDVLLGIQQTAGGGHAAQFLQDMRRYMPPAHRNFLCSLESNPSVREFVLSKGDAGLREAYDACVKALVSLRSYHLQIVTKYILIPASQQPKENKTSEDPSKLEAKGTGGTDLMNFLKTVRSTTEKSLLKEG
T1 sequence (P14902 whole entry): as above

On to `OC(c1c(C2CCCC2)ccc2cncn12)C1CCCCC1` (stereo not shown) [Example A158, cyclohexyl(6-cyclopentylimidazo[1,5-a]pyridin-5-yl)methanol], for which the IC50 at Recombinant IDO1 (setting [2]) worked out at 880 nM. In addition, the EC50 in assay [1] (setting [2]) was 933 nM.
The corresponding values for `O=C(O)c1cccc(C(O)c2c(C3CC3)ccc3cncn23)c1` (stereo not shown) [Example A159, 3-((6-cyclopropylimidazo[1,5-a]pyridin-5-yl)(hydroxy)methyl)benzoic acid] are 5500 nM and more than 10000 nM.
The corresponding values for `O=C(NC1CC1)c1cccc(C(O)c2c(C3CC3)ccc3cncn23)c1` (stereo not shown) [Example A160, N-cyclopropyl-3-((6-cyclopropylimidazo[1,5-a]pyridin-5-yl)(hydroxy)methyl)benzamide] are 81 nM and 5610 nM.
The corresponding values for `O=C1C2CCC(C2)C1C(O)c1c(C2CC2)ccc2cncn12` (stereo not shown) [Example A161, 3-((6-cyclopropylimidazo[1,5-a]pyridin-5-yl)(hydroxy)methyl)bicyclo[2.2.1]heptan-2-one] are 57000 nM and more than 10000 nM.
As to `OC(c1c(C2CC2)ccc2cncn12)C1CC2CCC1C2` (stereo not shown) [Example A162, (Bicyclo[2.2.1]heptan-2-yl)(6-cyclopropylimidazo[1,5-a]pyridin-5-yl)methanol], the IC50 on Recombinant IDO1 (setting [2]) amounted to 32 nM. Also, the EC50 in assay [1] (setting [2]) is 34 nM.
In the same order, the values of `O[C@H](c1c(C2CC2)ccc2cncn12)C1CC2CCC1C2` (stereo partly drawn) [Example A162a, (1S)-(bicyclo[2.2.1]heptan-2-yl)(6-cyclopropylimidazo[1,5-a]pyridin-5-yl)methanol] are 11 nM and 8.8 nM.
The corresponding values for `O[C@@H](c1c(C2CC2)ccc2cncn12)C1CC2CCC1C2` (stereo partly drawn) [Example A162b, (1R)-(bicyclo[2.2.1]heptan-2-yl)(6-cyclopropylimidazo[1,5-a]pyridin-5-yl)methanol] are 1600 nM and 6040 nM.
In the same order, the values of `OC(CC12CC3CC(CC(C3)C1)C2)c1c(C2CC2)ccc2cncn12` (stereo not shown) [Example A163, 2-(Adamantan-1-yl)-1-(6-cyclopropylimidazo[1,5-a]pyridin-5-yl)ethan-1-ol] are 94 nM and 102 nM.
`OC1CCCC(C(O)c2c(C3CC3)ccc3cncn23)C1` (stereo not shown) [Example A164b, 3-((6-Cyclopropylimidazo[1,5-a]pyridin-5-yl)(hydroxy)methyl)cyclohexan-1-ol]: on Recombinant IDO1 (setting [2]), the half-inhibitory concentration (IC50) was 42 nM. Besides, the half-maximal effective concentration (EC50) in assay [1] (setting [2]) was determined as 226 nM.
As for `OC1CC2CC1CC2C(O)c1c(C2CC2)ccc2cncn12` (stereo not shown) [Example A165, 5-((6-cyclopropylimidazo[1,5-a]pyridin-5-yl)(hydroxy)methyl)bicyclo[2.2.1]heptan-2-ol], the 50% inhibitory concentration (IC50) at Recombinant IDO1 (setting [2]) turned out to be 430 nM. Besides, the response in assay [1] (setting [2]) was half-maximal at 1200 nM (EC50).
As to `OC(CC1CC1)c1cccn2cncc12` (stereo not shown) [Example B007, 2-cyclopropyl-1-(imidazo[1,5-a]pyridin-8-yl)ethan-1-ol], the IC50 on Recombinant IDO1 (setting [3]) turned out to be 6600 nM. For the same compound, the concentration for a half-maximal effect (EC50) in assay [1] (setting [3]) was more than 10000 nM.
The corresponding values for `CC(O)(CC1CCCCC1)c1cccn2cncc12` (stereo not shown) [Example B009, 1-cyclohexyl-2-(imidazo[1,5-a]pyridin-8-yl)propan-2-ol] are 18000 nM and more than 10000 nM.
In the same order, the values of `OC(CCc1cccn2cncc12)C1CCCCC1` (stereo not shown) [Example B010, 1-Cyclohexyl-3-(imidazo[1,5-a]pyridin-8-yl)propan-1-ol] are 14000 nM and more than 10000 nM.
In the same order, the values of `OC(c1c(C(F)(F)F)ccn2cncc12)C1CCCCC1` (stereo not shown) [Example B111, Cyclohexyl(7-(trifluoromethyl)imidazo[1,5-a]pyridin-8-yl)methanol] are 85 nM and 415 nM.
Turning to `OC(c1c(C2CC2)ccn2cncc12)C1CCOCC1` (stereo not shown) [Example B112, (7-Cyclopropylimidazo[1,5-a]pyridin-8-yl)(tetrahydro-2H-pyran-4-yl)methanol], the IC50 on Recombinant IDO1 (setting [3]) came to 530 nM. This compound showed a 50% effective concentration (EC50) in assay [1] (setting [3]) of 1680 nM.
As for `CC(C)(C)c1ccn2cncc2c1C(O)C1CCCCC1` (stereo not shown) [Example B113, (7-(tert-Butyl)imidazo[1,5-a]pyridin-8-yl)(cyclohexyl)methanol], at Recombinant IDO1 (setting [3]), the IC50 is 1300 nM. Moreover, in assay [1] (setting [3]), a half-maximal effect (EC50) was put at 9340 nM.
The corresponding values for `OC(c1c(C2CCC2)ccn2cncc12)C1CCCCC1` (stereo not shown) [Example B114, (7-Cyclobutylimidazo[1,5-a]pyridin-8-yl)(cyclohexyl)methanol] are 630 nM and 3040 nM.
The corresponding values for `C=CC(O)c1c(C2CC2)ccn2cncc12` (stereo not shown) [Example B115, 1-(7-Cyclopropylimidazo[1,5-a]pyridin-8-yl)prop-2-en-1-ol] are 120 nM and more than 10000 nM.
In the same order, the values of `OC(c1c(Cl)ccn2cncc12)C1CC=CCC1` (stereo not shown) [Example B116, (7-Chloroimidazo[1,5-a]pyridin-8-yl)(cyclohex-3-en-1-yl)methanol] are 61 nM and 4580 nM.
Consider `OC(c1c(C2CC2)ccn2cncc12)C1C2CC3CC(C2)CC1C3` (stereo not shown) [Example B117, (Adamantan-2-yl)(7-cyclopropylimidazo[1,5-a]pyridin-8-yl)methanol], for which the IC50 at Recombinant IDO1 (setting [3]) was 1100 nM. Moreover, the midpoint of the response in assay [1] (setting [3]), the EC50, lay at 401 nM.
In the case of `OC(CC12CC3CC(CC(C3)C1)C2)c1c(C2CC2)ccn2cncc12` (stereo not shown) [Example B118, 2-(Adamantan-1-yl)-1-(7-cyclopropylimidazo[1,5-a]pyridin-8-yl)ethan-1-ol], the concentration for half-maximal inhibition (IC50) at Recombinant IDO1 (setting [3]) came out at 280 nM. Moreover, the EC50 in assay [1] (setting [3]) was found to be 179 nM.
As for `CC(C)c1ccn2cncc2c1C(O)C1CCC(O[Si](C)(C)C(C)(C)C)CC1` (stereo not shown) [Example B120, (4-((tert-Butyldimethylsilyl)oxy)cyclohexyl)(7-isopropylimidazo[1,5-a]pyridin-8-yl)methanol], the concentration for half-maximal inhibition (IC50) on Recombinant IDO1 (setting [3]) is 790 nM. The compound also yielded a 50% effective concentration (EC50) in assay [1] (setting [3]) of more than 10000 nM.
For the compound `OC(c1c(C2CC2)ccn2cncc12)C1CC2CCC1C2` (stereo not shown) [Example B122, bicyclo[2.2.1]heptan-2-yl(7-cyclopropylimidazo[1,5-a]pyridin-8-yl)methanol], the IC50 on Recombinant IDO1 (setting [3]) stood at 53 nM. In addition, a half-maximal response in assay [1] (setting [3]) (EC50) required 116 nM.
The corresponding values for `O[C@H](c1c(C2CC2)ccn2cncc12)[C@H]1C[C@H]2CC[C@@H]1C2` [Example B122a, (S)-((1R,2S,4S)-bicyclo[2.2.1]heptan-2-yl)(7-cyclopropylimidazo[1,5-a]pyridin-8-yl)methanol] are 58 nM and 33 nM.
As to `OC(c1c(C2CC2)ccn2cncc12)C1CC2C=CC1CC2` (stereo not shown) [Example B123, Bicyclo[2.2.2]oct-5-en-2-yl(7-cyclopropylimidazo[1,5-a]pyridin-8-yl)methanol], the 50% inhibitory concentration (IC50) at Recombinant IDO1 (setting [3]) was 260 nM. In assay [1] (setting [3]), this compound returned a 50% effective concentration (EC50) of 754 nM.
Take `OC(c1c(C2CC2)ccn2cncc12)C1CC2CCC1CC2` (stereo not shown) [Example B124, Bicyclo[2.2.2]octan-2-yl(7-cyclopropylimidazo[1,5-a]pyridin-8-yl)methanol]: at Recombinant IDO1 (setting [3]), the IC50 is 440 nM. This compound also had a half-maximal effective concentration (EC50) in assay [1] (setting [3]) of 376 nM.
The corresponding values for `O=C(NC1CC1)c1cccc(C(O)c2c(C3CC3)ccn3cncc23)c1` (stereo not shown) [Example B125, N-cyclopropyl-3-((7-cyclopropylimidazo[1,5-a]pyridin-8-yl)(hydroxy)methyl)benzamide] are 170 nM and 8500 nM.
In the same order, the values of `O=C(OCc1ccccc1)N1CCCC(C(O)c2c(C3CC3)ccn3cncc23)C1` (stereo not shown) [Example B129, Benzyl-3-((7-cyclopropylimidazo[1,5-a]pyridin-8-yl)(hydroxy)methyl) piperidine-1-carboxylate] are 310 nM and more than 10000 nM.
For the compound `CC(C)(C)OC(=O)NCC(=O)N1CCCC(C(O)c2c(C3CC3)ccn3cncc23)C1` (stereo not shown) [Example B131, tert-Butyl (2-(3-((7-cyclopropylimidazo[1,5-a]pyridin-8-yl)(hydroxy)methyl)piperidin-1-yl)-2-oxoethyl) carbamate], the half-inhibitory concentration (IC50) on Recombinant IDO1 (setting [3]) came out at 1700 nM. In assay [1] (setting [3]), this compound came in with a 50% effective concentration (EC50) of more than 10000 nM.
